Reference: US8287923B2, “Compositions and methods for treating immune disorders” (priority 2005, dated 2012)

Tested on: normal human epidermal keratinocytes (NHEK)
Experiment: Affymetrix gene array analysis, autoantigen gene expression
Format: cell-based
Experimental: The gene array experiment was performed at the Core Facility of Genomics of the Medical College of Georgia, according to the instructions of the manufacturer (Affymetrix, Santa Clara, Calif.). Briefly, NHEK and OSC2 cells treated with 100 μM EGCG for different time period were extracted for total RNA, the RNA was processed for probes and hybridized with a cDNA microarray (HuG133A, Affymetrix) which represents 22,283 human series. DNA chips were read with a Hewlett-Packard GeneArray Scanner at a resolution of […] and were analyzed with the GeneSpring software (Silicon Genetics, Redwood City, Calif.). Details of this analysis will be published elsewhere (Hsu et al., manuscript in preparation).
Gene assays provide a valuable tool for studying the broad response of cells to agents, and we have used this approach to compare the differential effects of GTPP on gene expression in NHEK and human oral squamous carcinoma cells (Hsu, et al, manuscript in preparation). […] See also Hsu, S. et al. (2005) JPET 315:805-811, which is incorporated by reference in its entirety.

## O=C(O[C@@H]1Cc2c(O)cc(O)cc2O[C@@H]1c1cc(O)c(O)c(O)c1)c1cc(O)c(O)c(O)c1 [EGCG, (−)-epigallocatechin-3-gallate]
100 uM EGCG, both cell types (NHEK, oral squamous carcinoma cells), 24 hrs post-treatment
  genes either up- or down-regulated by at least 2-fold: approximately 2100 genes
0.5 h, 100 μM
  60 kDa, SS-A/Ro (210438_x_at) expression, normalized: 0.71
  60 kDa, SS-A/Ro (212852_s_at) expression, normalized: 0.60
  Ku autoantigen, 80 kDa (208642_s_at) expression, normalized: 1.29
  Ku autoantigen, 80 kDa (208643_s_at) expression, normalized: 2.34
  Nuclear antigen SP100 (202863_at) expression, normalized: 1.72
  Nuclear antigen SP100 (202864_s_at) expression, normalized: 3.12
  Nuclear antigen SP10075 kDa (213226_at) expression, normalized: 3.99
  RNA polymerase 1 (202692_s-at) expression, normalized: 0.50
  SS-B/La (201138_s_at) expression, normalized: 0.84
  SS-B/La (201139_s_at) expression, normalized: 0.71
  centromere protein C1 (20473_at) expression, normalized: 1.27
  coilin (203653_s_at) expression, normalized: 0.49
  coilin (203654_s_at) expression, normalized: 1.11
  fodrin-α (208611_s_at) expression, normalized: 0.41
  fodrin-α (215235_s_at) expression, normalized: 0.49
  golgin-67 (208797_s_at) expression, normalized: 1.26
  golgin-67 (208798_x_at) expression, normalized: 0.81
  golgin-67 (210425_x_at) expression, normalized: 0.50
  golgin-67 (213650_at) expression, normalized: 0.24
  scleroderma autoantigen 1, 75 kDa (213226_at) expression, normalized: 3.99
  spectrin-β non-erythrocyctic 1 (212071_s_at) expression, normalized: 0.91
  thyroid autoantigen 70 kDa (Ku antigen) (200792_at) expression, normalized: 1.15
0.5 h, 100 μM, vs time zero
  ADPRT [poly(ADP)-ribose polymerase] expression: 3.547 fold
  ANAP12 expression: 0.505 fold
  ANXA11 expression: 1.043 fold
  CALR expression: 0.71 fold
  CBARA1 expression: 0.506 fold
  CENPA expression: 7.677 fold
  CENPB expression: 0.506 fold
  CENPC1 expression: 1.269 fold
  CHD4 expression: 0.766 fold
  COL17A1 expression: 1.749 fold
  CTDSP1 expression: 0.71 fold
  CTDSP2 expression: 1.61 fold
  CTDSPL expression: 2.83 fold
  DLAT expression: 1.54 fold
  EPPK1 expression: 0.793 fold
  FBL expression: 1.64 fold
  FLJ31657 expression: 0.833 fold
  FLNB (Filamin B, β) expression: 1.379 fold
  FLNB (Filamin B, γ) expression: 0.72 fold
  G22P1 (Thyroid autoantigen, 70 kDa, Ku antigen) expression: 1.15 fold
  GMEB2 expression: 0.584 fold
  GOLGA1 expression: 0.398 fold
  GOLGA2 expression: 0.332 fold
  GOLGA3 expression: 0.533 fold
  GOLGA4 expression: 0.822 fold
  GOLGA5 expression: 1.566 fold
  GOLGB1 expression: 0.969 fold
  HARS expression: 1.27 fold
  HARSL expression: 1.12 fold
  HSA6591 expression: 0.456 fold
  HUMAUANTIG expression: 0.948 fold
  IMP-2 expression: 1.615 fold
  LAD1 expression: 0.799 fold
  LMO4 expression (repeat 1): 0.272 fold
  LMO4 expression (repeat 2): 0.6 fold
  MGC5560 expression (repeat 1): 4.392 fold
  MGC5560 expression (repeat 2): 7.07 fold
  NS (Nucleostemin) expression: 0.634 fold
  PDHB expression: 1.079 fold
  PDX1 expression: 1.103 fold
  PMSCL1, 75 kDa expression: 3.993 fold
  PMSCL2 expression: 0.959 fold
  POLR1B expression: 0.67 fold
  POLR1D expression: 0.90 fold
  POLR2A expression (repeat 1): 0.13 fold
  POLR2A expression (repeat 2): 1.03 fold
  POLR2B expression: 1.83 fold
  POLR2C expression: 1.32 fold
  POLR2D expression: 1.14 fold
  POLR2E expression: 0.45 fold
  POLR2F expression: 0.90 fold
  POLR2G expression: 1.09 fold
  POLR2H expression: 0.88 fold
  POLR3C expression: 0.90 fold
  POLR3G expression: 1.55 fold
  PSME3 expression: 2.554 fold
  RALY expression: 1.556 fold
  SART1 expression: 1.982 fold
  SLC25A16 expression: 1.022 fold
  SNRP70 expression: 3.59 fold
  SNRPA expression: 1.29 fold
  SNRPB2 expression: 0.49 fold
  SNRPB expression (repeat 1): 0.96 fold
  SNRPB expression (repeat 2): 0.62 fold
  SNRPC expression: 1.28 fold
  SNRPD1 expression (repeat 1): 2.098 fold
  SNRPD1 expression (repeat 2): 0.755 fold
  SOX13 expression: 1.304 fold
  SP100 expression (repeat 1): 1.72 fold
  SP100 expression (repeat 2): 3.123 fold
  SP110 expression (repeat 1): 5.725 fold
  SP110 expression (repeat 2): 4.176 fold
  SP110 expression (repeat 3): 1.149 fold
  SPTAN1 (α-fodrin) expression (repeat 1): 0.41 fold
  SPTAN1 (α-fodrin) expression (repeat 2): 0.49 fold
  SPTBN expression: 0.91 fold
  SSA2 (autoantigen SS-A/Ro) expression (repeat 2): 0.709 fold
  SSA2 expression (repeat 1): 1.009 fold
  SSA2 expression (repeat 3): 0.505 fold
  SSA2 expression (repeat 4): 0.596 fold
  SSB (autoantigen La) expression (repeat 1): 0.838 fold
  SSB (autoantigen La) expression (repeat 2): 0.711 fold
  SSNA1 expression: 1.354 fold
  SSSCA1 expression: 1.267 fold
  STRN3 expression: 0.425 fold
  TOP1 expression (repeat 1): 0.85 fold
  TOP1 expression (repeat 2): 0.62 fold
  UBTF expression: 0.498 fold
  XRCC5 (Ku autoantigen, 80 kDa) expression (repeat 1): 2.338 fold
  XRCC5 (Ku autoantigen, 80 kDa) expression (repeat 2): 1.87 fold
  dJ963E22.1 expression: 1.842 fold
  α-NAC expression: 0.632 fold
